From the NIST ThermoML archive (doi:10.1021/acs.jced.8b00814)
± gives the expanded uncertainty stated by the source.

Conditions: 101.33 kPa, Liquid, Vibrating tube method

O [water]
Conditions | mass density [kg/m3]
283.15 K | 999.66 ± 1.9
308.15 K | 994.11 ± 1.9
313.15 K | 992.32 ± 1.9
318.15 K | 990.34 ± 1.9
323.15 K | 988.18 ± 1.9
328.15 K | 985.87 ± 1.9
333.15 K | 983.4 ± 1.9
338.15 K | 980.78 ± 1.9
343.15 K | 978.02 ± 1.9
348.15 K | 975.13 ± 1.9
353.15 K | 972.11 ± 1.9
358.15 K | 968.95 ± 1.9
363.15 K | 965.71 ± 1.9
